Results published in patent publication US7625896B2, “Pyridylsulfonamide derivatives” (Hoffman-La Roche Inc., priority 2005, dated 2009).
Structures can show the parent of a compound that is named as a salt.

Tested on: HCT 116 cells
Assay: Viability assay in HCT 116 cells (CellTiter-Glo Luminescent Cell Viability Assay)
Assay type: cell-based
Conditions: HCT 116 human colon carcinoma cells, 5 days (120 h) incubation, 10 concentrations 30 μM to 0.0015 μM, ATP luminescence
Experimental: Viability Assay in HCT 116 Cells
A viability assay was performed using the CellTiter-Glo® Luminescent Cell Viability Assay (see Promega Corporation's Technical Bulletin No. 288, pp. 1-11 [revised February 2004] which is hereby incorporated by reference in its entirety). This assay is a homogeneous method of determining the number of viable cells in culture based on quantitation of the ATP present, an indicator of metabolically active cells. The assay is designed for use with multiwell formats, making it ideal for automated high-throughput screening (HTS), cell proliferation and cytotoxicity assays. The homogeneous assay procedure involves adding a single reagent (containing luciferase, luciferan substrate, and buffer) directly to cells cultured in serum-supplemented medium. Cell washing, removal of medium and multiple pipetting steps are not required. The system detects as few as 15 cells/well in a 384-well format in 10 minutes after adding reagent and mixing.
The homogeneous “add-mix-measure” format results in cell lysis and generation of a luminescent signal proportional to the amount of ATP present. The amount of ATP is directly proportional to the number of cells present in culture. The above-referenced assay generates a “glow-type” luminescent signal, produced by the luciferase reaction, which has a half-life generally greater than five hours, depending on cell type and medium used. The extended half-life eliminates the need to use reagent injectors and provides flexibility for continuous or batch mode processing of multiple plates. The unique homogeneous format avoids errors that may be introduced by other ATP measurement methods that require multiple steps.
HCT 116 cells (human colon carcinoma, ATCC-No. CCl-247) were cultivated in RPMI 1640 medium with GlutaMAX™ I (cell culture media that contains L-Alanyl-L-Glutamine [a stabilized form/source of L-Glutamine] from Invitrogen, Cat-No. 61870-010), 5% Fetal Calf Serum (FCS, Sigma Cat-No. F4135 (FBS)); 100 Units/ml penicillin/100 μg/ml streptomycin (=Pen/Strep from Invitrogen Cat. No. 15140). For the assay the cells were seeded in 384 well plates, 1000 cells per well, in the same medium. The next day the test compounds were added in various concentrations ranging from 30 μM to 0.0015 μM (10 concentrations, 1:3 diluted). After 5 days the viability assay was performed according to the instructions of the manufacturer. In brief: the cell-plate was equilibrated to room temperature for approximately 30 minutes and then the reagent (containing luciferase, luciferan substrate, and buffer) was added. The contents were carefully mixed for 15 minutes to induce cell lysis. After 45 minutes the luminescent signal was measured in Victor 2, (scanning multiwell spectrophotometer, Wallac).
1st. Day: • Medium: RPMI 1640 with GlutaMAX™ I (Invitrogen, Cat-No. 61870), 5% FCS (Sigma Cat.-No. F4135), Pen/Strep (Invitrogen, Cat No. 15140). • HCT116 (ATCC-No. CCl-247): 1000 cells in 60 μl per well of 384 well plate (Greiner 781098, μClear-plate white) • After seeding incubate plates 24 h at 37° C., 5% CO2
2nd. Day: Induction (Treatment with Compounds, 10 Concentrations):
In order to achieve a final concentration of 30 μM as highest concentration 3.5 μl of 10 mM compound stock solution were added directly to 163 μl media. Then step e) of the dilution procedure described below, was followed.

SMILES | IC50 [µM]
O=C(NS(=O)(=O)c1cnc(Cl)c(Br)c1)c1ccc(Br)cc1Cl [Example 1-7, 5-Bromo-6-chloro-pyridine-3-sulfonic acid 4-bromo-2-chloro-benzoylamide; sodium salt] | 8.48
O=C(NS(=O)(=O)c1cnc(Cl)c(Br)c1)c1ccc(Cl)cc1Br [Example 1-8, 5-Bromo-6-chloro-pyridine-3-sulfonic acid 2-bromo-4-chloro-benzoylamide; sodium salt] | 1 to 16
O=C(NS(=O)(=O)c1cnc(Cl)c(Br)c1)c1ccc(Cl)cc1Cl [Example 1-13, 5-Bromo-6-chloro-pyridine-3-sulfonic acid 2,4-dichloro-benzoylamide; sodium salt] | 1 to 16
O=C(NS(=O)(=O)c1ccc(Oc2ccccc2)nc1)c1ccc(C(F)(F)F)cc1F [Example 1-15, 6-Phenoxy-pyridine-3-sulfonic acid 2-fluoro-4-trifluoromethyl-benzoylamide; sodium salt] | 1 to 16
O=C(NS(=O)(=O)c1cnc(Cl)c(Br)c1)c1ccc(C(F)(F)F)cc1C(F)(F)F [Example 1-18, 5-Bromo-6-chloro-pyridine-3-sulfonic acid 2,4-bis-trifluoromethyl-benzoylamide; sodium salt] | 1 to 16
O=C(NS(=O)(=O)c1ccc(Oc2ccccc2)nc1)c1ccc(Cl)cc1F [Example 1-20, 6-Phenoxy-pyridine-3-sulfonic acid 4-chloro-2-fluoro-benzoylamide; sodium salt] | 1 to 16
O=C(NS(=O)(=O)c1cccnc1)c1ccc(Cl)cc1Cl [Example 1-24, Pyridine-3-sulfonic acid 2,4-dichloro-benzoylamide; sodium salt] | 3.17
O=C(NS(=O)(=O)c1ccc(Oc2ccccc2)nc1)c1ccc(Br)cc1Cl [Example 1-28, 6-Phenoxy-pyridine-3-sulfonic acid 4-bromo-2-chloro-benzoylamide; sodium salt] | 1 to 16
O=C(NS(=O)(=O)c1ccc(Oc2ccccc2)nc1)c1ccc(Cl)cc1Br [Example 1-33, 6-Phenoxy-pyridine-3-sulfonic acid 2-bromo-4-chloro-benzoylamide; sodium salt] | 1 to 16
O=C(NS(=O)(=O)c1cccnc1)c1ccc(C(F)(F)F)cc1C(F)(F)F [Example 1-38, Pyridine-3-sulfonic acid 2,4-bis-trifluoromethyl-benzoylamide; sodium salt] | 1 to 16
Cc1ccc(C(=O)NS(=O)(=O)c2ccc(Oc3ccccc3)nc2)c(Br)c1 [Example 1-40, 6-Phenoxy-pyridine-3-sulfonic acid 2-bromo-4-methyl-benzoylamide; sodium salt] | 1 to 16
COc1cc(Cl)ccc1C(=O)NS(=O)(=O)c1ccc(N2CCC(OC)CC2)nc1 [Example 1-45, 4-Methoxy-3,4,5,6-tetrahydro-2H-[1,2′]bipyridinyl-5′-sulfonic acid 4-chloro-2-methoxy-benzoylamide; sodium salt] | 1 to 16
COc1cc(Cl)ccc1C(=O)NS(=O)(=O)c1ccc(N2CCSCC2)nc1 [Example 1-47, 6-Thiomorpholin-4-yl-pyridine-3-sulfonic acid 4-chloro-2-methoxy-benzoylamide] | 1 to 16
CCCN(CCC)c1ccc(S(=O)(=O)NC(=O)c2ccc(Cl)cc2C(F)(F)F)cn1 [Example 1-54, 6-Dipropylamino-pyridine-3-sulfonic acid 4-chloro-2-trifluoromethyl-benzoylamide] | 1 to 16
CCCCN(CC)c1ccc(S(=O)(=O)NC(=O)c2ccc(Cl)cc2C(F)(F)F)cn1 [Example 1-59, 6-(Butyl-ethyl-amino)-pyridine-3-sulfonic acid 4-chloro-2-trifluoromethyl-benzoylamide; ammonium salt] | 1 to 16
CCCN(C)c1ccc(S(=O)(=O)NC(=O)c2ccc(F)cc2Cl)cn1 [Example 1-63, 6-(Methyl-propyl-amino)-pyridine-3-sulfonic acid 2-chloro-4-fluoro-benzoylamide] | 1 to 16

Continued, values first:

IC50 [µM] | SMILES
1 to 16 | O=C(NS(=O)(=O)c1ccc(N2CCOCC2)nc1)c1ccc(Cl)cc1Cl [Example 1-1, 6-morpholin-4-yl-pyridine-3-sulfonic acid 2,4-dichloro-benzoylamide; sodium salt]
5.32 | Cc1cc(Cl)ccc1C(=O)NS(=O)(=O)c1ccc(N2CCOCC2)nc1 [Example 1-2, 6-Morpholin-4-yl-pyridine-3-sulfonic acid 4-chloro-2-methyl-benzoylamide; sodium salt]
1 to 16 | Cc1cc(Br)ccc1C(=O)NS(=O)(=O)c1ccc(N2CCOCC2)nc1 [Example 1-3, 6-Morpholin-4-yl-pyridine-3-sulfonic acid 4-bromo-2-methyl-benzoylamide; sodium salt]
1 to 16 | Cc1ccc(C(=O)NS(=O)(=O)c2ccc(N3CCOCC3)nc2)c(Br)c1 [Example 1-4, 6-Morpholin-4-yl-pyridine-3-sulfonic acid 2-bromo-4-methyl-benzoylamide; sodium salt]
1 to 16 | O=C(NS(=O)(=O)c1ccc(N2CCOCC2)nc1)c1ccc(F)cc1Cl [Example 1-10, 6-Morpholin-4-yl-pyridine-3-sulfonic acid 2-chloro-4-fluoro-benzoylamide; sodium salt]
1 to 16 | O=C(NS(=O)(=O)c1ccc(Oc2ccccc2)nc1)c1ccc(F)cc1C(F)(F)F [Example 1-21, 6-Phenoxy-pyridine-3-sulfonic acid 4-fluoro-2-trifluoromethyl-benzoylamide; sodium salt]
1 to 16 | O=C(NS(=O)(=O)c1ccc(N2CCOCC2)nc1)c1ccc(Cl)cc1Br [Example 1-29, 6-Morpholin-4-yl-pyridine-3-sulfonic acid 2-bromo-4-chloro-benzoylamide; sodium salt]
1 to 16 | O=C(NS(=O)(=O)c1ccc(N2CCCCCC2)nc1)c1ccc(Cl)cc1C(F)(F)F [Example 1-49, 6-Azepan-1-yl-pyridine-3-sulfonic acid 4-chloro-2-trifluoromethyl-benzoylamide]
1 to 16 | CC1CCCN(c2ccc(S(=O)(=O)NC(=O)c3ccc(Cl)cc3C(F)(F)F)cn2)C1 (centres unmarked) [Example 1-51, 3-Methyl-3,4,5,6-tetrahydro-2H-[1,2′]bipyridinyl-5′-sulfonic acid 4-chloro-2-trifluoromethyl-benzoylamide; ammonium salt]
1 to 16 | O=C(NS(=O)(=O)c1ccc(N2CCSCC2)nc1)c1ccc(Cl)cc1C(F)(F)F [Example 1-56, 6-Thiomorpholin-4-yl-pyridine-3-sulfonic acid 4-chloro-2-trifluoromethyl-benzoylamide; ammonium salt]
1 to 16 | O=C(NS(=O)(=O)c1ccc(N2CCSCC2)nc1)c1ccc(F)cc1Cl [Example 1-68, 6-Thiomorpholin-4-yl-pyridine-3-sulfonic acid 2-chloro-4-fluoro-benzoylamide]
1 to 16 | O=C(NS(=O)(=O)c1ccc(N2CCCCCC2)nc1)c1ccc(Cl)cc1Cl [Example 1-69, 6-Azepan-1-yl-pyridine-3-sulfonic acid 2,4-dichloro-benzoylamide]
1 to 16 | O=C(NS(=O)(=O)c1ccc(N2CCSCC2)nc1)c1ccc(Cl)cc1Cl [Example 1-71, 6-Thiomorpholin-4-yl-pyridine-3-sulfonic acid 2,4-dichloro-benzoylamide]
1 to 16 | C[C@@H]1CN(c2ccc(S(=O)(=O)NC(=O)c3ccc(Cl)cc3C(F)(F)F)cn2)C[C@H](C)O1 [Example 1-72, 6-((2R,6S)-2,6-Dimethyl-morpholin-4-yl)-pyridine-3-sulfonic acid 4-chloro-2-trifluoromethyl-benzoylamide]
1 to 16 | O=C(NS(=O)(=O)c1ccc(N2CCCCCC2)nc1)c1ccc(F)cc1C(F)(F)F [Example 1-78, 6-Azepan-1-yl-pyridine-3-sulfonic acid 4-fluoro-2-trifluoromethyl-benzoylamide]
1 to 16 | O=C(NS(=O)(=O)c1ccc(N2CCSCC2)nc1)c1ccc(F)cc1C(F)(F)F [Example 1-80, 6-Thiomorpholin-4-yl-pyridine-3-sulfonic acid 4-fluoro-2-trifluoromethyl-benzoylamide]
